Values of other authors in patent publication US20230157303A1, “Plant-Based Pesticide” (priority 2022, published 2023).

How the values were obtained:
Settings in all cases: in vivo
honeybees = test system: honeybees
humans and other mammals = test system: humans and other mammals
aquatic wildlife = test system: aquatic wildlife

In the case of `CCOP(=S)(OCC)Oc1cc(C)nc(C(C)C)n1` [diazinon, Diazinon], the toxicity to honeybees (honeybees) is given as “toxic”.

For `CCOC(=O)CC(SP(=S)(OC)OC)C(=O)OCC` (centres unmarked) [malathion, Malathion], the toxicity to honeybees (honeybees) is given as “toxic”.

For `CC1(C)C(C=C(Cl)Cl)C1C(=O)OC(C#N)c1cccc(Oc2ccccc2)c1` (centres unmarked) [Cypermethrin], the “toxicity to humans and other mammals” value (humans and other mammals) is listed as “acutely toxic”, the toxicity to honeybees (honeybees) is listed as “very highly toxic” and the “toxicity to aquatic wildlife” value (aquatic wildlife) is listed as “highly toxic”.
